The text below walks through data of patent publication US20250161238A1, “NMDAR Antagonists Prevent Ageing and Aging-Associated Conditions and Diseases Through Increasing 20S Proteasome Activity” (priority 2022, published 2025).

Test [1] deals with T1, proteasome (Homo sapiens, UniProt P28072+P28074+Q99436).
T1 sequence (P28074 60-263): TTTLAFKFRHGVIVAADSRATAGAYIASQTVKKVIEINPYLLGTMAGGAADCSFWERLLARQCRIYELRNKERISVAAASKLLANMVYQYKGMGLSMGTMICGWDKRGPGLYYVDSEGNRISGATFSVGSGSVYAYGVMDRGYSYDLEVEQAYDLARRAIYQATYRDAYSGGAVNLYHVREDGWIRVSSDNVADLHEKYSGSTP
T1 sequence (Q99436 44-277): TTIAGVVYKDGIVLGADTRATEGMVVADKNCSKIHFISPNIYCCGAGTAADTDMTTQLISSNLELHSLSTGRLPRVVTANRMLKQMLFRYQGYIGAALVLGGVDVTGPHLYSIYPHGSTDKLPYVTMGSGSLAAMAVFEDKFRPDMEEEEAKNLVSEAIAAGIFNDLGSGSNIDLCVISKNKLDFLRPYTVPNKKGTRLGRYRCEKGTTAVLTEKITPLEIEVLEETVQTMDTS
T1 sequence (P28072 1-239): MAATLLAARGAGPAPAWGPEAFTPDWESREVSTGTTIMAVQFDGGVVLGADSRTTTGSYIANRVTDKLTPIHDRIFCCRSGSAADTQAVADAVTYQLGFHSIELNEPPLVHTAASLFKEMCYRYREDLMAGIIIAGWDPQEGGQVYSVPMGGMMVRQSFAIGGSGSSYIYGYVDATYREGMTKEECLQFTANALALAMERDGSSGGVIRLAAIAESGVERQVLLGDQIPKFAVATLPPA
In words: In-Cell Fluorogenic Proteasome Assay, T98G. The test is classed as cell-based. More on the design: endogenous in cells; host or cells: T98G (A10), digitonin/Tween-permeabilised whole cells. As to conditions: whole T98G cell. On the procedure:
(§1) For a 96-well plate format, 8×10^3 cells per well were seeded. 24 hours later medium was changed with NMDAR blocker containing medium. Two hours later 100 μl of 2× flourescence cell buffer: (1 ml 1M tris hcl ph: 7.5, 500 μl 1M KCL, 200 μl […], 200 μl 0.1M MgCL2, 50 μl % 0.2 tween 20, 75 μl digitonin 20 mg/ml in DMSO ChemCruz cat no: sc-280675, 10 μl flourescence substrates including Suc-LLVY-AMC, Z-LLE-AMC, and Ac-RLR-AMC Ac-RLR-AMC, 8.1 ml H2O). After incubation at room temperature for a 5 minutes the flourescence of each sample were measured in a flourescence spectrometer (Biotek instrument-Synergy HT).

The target of another test is T2, 26S proteasome (Homo sapiens, UniProt P28072+P28074+Q99436).
T2 construct: endogenous in cells; host or cells: crude cell lysate
T2 sequence (P28074 60-263): T1 sequence (P28074 60-263)
T2 sequence (Q99436 44-277): T1 sequence (Q99436 44-277)
T2 sequence (P28072 1-239): T1 sequence (P28072 1-239)
Kind of test: Proteasome activity assay with cell lysate and fluorogenic substrates. The test is classed as biochemical. As to conditions: cell lysate. On the procedure: The activity of the 26S proteasome was measured by following steps. Aliquots of 2×10^6 cells were lysed with glass beads (Sigma) at 4° C. in lysis buffer containing 50 mM Tris-HCl (pH 7.5), 5 mM MgCl2, 1 mM DTT and 250 mM sucrose, and the protein concentration of cleared supernatants was measured by BCA protein assay reagent (Pierce). Ten micrograms of total protein was diluted with 26S proteasome assay buffer in a 96-well microtiter plate (BD Falcon), and incubated with fluorogenic substrates including Suc-LLVY-AMC, Z-LLE-AMC, and Ac-RLR-AMC Ac-RLR-AMC (Cayman-U.S.A.) were used to measure chymotrypsin, caspase-, and trypsin-like proteasome activity, respectively. Fluorescence released by AMC fluorescence was monitored on a microplate fluorometer (Biotek instrument-synergy HT) every 5 min at 37° C. for 1 h.

In test [2] the target is T1, proteasome. Kind of test: In-Cell Fluorogenic Proteasome Assay, HepG2. As to conditions: for trypsin, chemotrypsin and caspase-like proteasome activities: whole HepG2 cell. Also on record: endogenous in cells; host or cells: HepG2 (A9), T98G (A10), digitonin/Tween-permeabilised whole cells. The test is classed as cell-based. On the procedure: as §1
For test [3], the system named is primary human fibroblast cells. Kind of test: SA β-gal staining of primary human fibroblast cells. The test is classed as cell-based. As to conditions: passage 10. The text has this:
(§2) First, primary human fibroblast cells were divided into two as control and NMDAR added group at the 4th passage and followed under the same condution until the 10th passage.
Therefore cellular senescence were investigated by SA β-gal staining in cells at passage 10.

Test [4] relates to primary human fibroblast cells. In words: MTT assay of primary human fibroblast cells. The note with it: cells set up at passage 8. The test is classed as cell-based.
Excerpt: as §2
Cellular senescence is defined as a complete and irreversible loss of replicative capacity in primary somatic cells. (hayflick 1961). Therefore, MTT assay is used to measure cellular metabolic activity as an indicator of cell viability and proliferation in cells set up at passage 8.
On the technique in general: Formazan colour is commonly taken as a measure of viable cells.

The subject of test [5] is primary human fibroblast cells. In words: Nile red staining of lipid droplets in primary fibroblast cells. The test is classed as cell-based. As to conditions: late passage. The text has this: In another experiment, the amount of intracellular lipid droplets as indicator of fat metabolism were investigated in senescent cells with nile red staining in cells at the late passage. Nile red is a lipophilic stain which stain intracellular lipid droplets and proteins. Lipid droplets are highly dinamic cellular organelles involved in the storage and the metabolism of neutral lipids.

Another test deals with C. elegans. Kind of test: C. elegans lipid accumulation by Nile Red staining. The test is classed as in vivo. The text has this: In the next study, the effects of NMDAR blocker on lipid accumulation and central body fat and thus the fat metabolism in C. elagans was investigated. As mentioned above Nile red is a lipophilic stain which stain intracellular lipid droplets in cell. Therefore, in the presence of memantine and control C. elegans groups on the 19th day, the amount of fat in the living organisms was investigated by Nile Red staining.

A further test has as its system hippocampal slices. As to conditions: 6-10 uM; cited from earlier work.
For test [6], the system named is human mesenchymal stem cells. In words: Differentiation markers of mesenchymal stem cells (western blot). It is filed as cell-based. The note with it: day 14. The text has this:
We investigated the differentiation of stem cells in the presence of memantine after cell passages using the simple differentiation method using the DMEM/F12, 10% FBS without coculture of mouse fibroblast (Yoo et all. 2020).
Cell were harvested at day 14 for western blot and the protein expression amounts of the differentiation markers cd44, cd73, and cd90 were investigated. […] Another indicator of the stem cell differentiation is the determination of the amounts of lipid droplet in the cell. Fourteen-day cell passage is caused to increase lipid in the cell. It was observed that memantine treatment has prevented the amount of lipid droplet (FIG. 36D).
On the technique in general: In western blotting, separated proteins are transferred to a membrane and probed.

`CNC1(c2ccccc2Cl)CCCCC1=O` (centres unmarked) [ketamin, 2-(2-chlorophenyl)-2-(methylamino)-cyclohexanone]: the “trypsin, chemotrypsin and caspase-like proteasome activities” value at proteasome [1] and at proteasome [2] was “increased” in each case. Besides, the “trypsin, chemotrypsin and caspase-like proteasome activity” value at 26S proteasome was “no effects”. The “chemotrypsin activity of proteasome” value at proteasome [2] (whole cell, substance alone) is recorded as “depending on the amount of the drugs”. Moreover, in [3], the “SA β-gal stained cells, control cells compared to treated cells” value was 2.6 fold. Also, in [4], the “proliferation (MTT assay)” value is given as “higher”. Besides, the “Nile red flourescence (intracellular lipid droplets)” value in [5] is reported as “more flourescence”.
For `CC12CC3CC(C)(C1)CC(N)(C3)C2` [memantine, 3,5-dimethyladamantan-1-amine], the “trypsin, chemotrypsin and caspase-like proteasome activities” value at proteasome [1] is “increased”. Moreover, the “trypsin, chemotrypsin and caspase-like proteasome activity” value at 26S proteasome is listed as “no effects”. Moreover, the “lipid accumulation in control group compared to treated” value in the test on C. elegans (19th day) is reported as “more than 2 fold”. Also, the “lipid accumulation in control group compared to treated” value with C. elegans (20th day) was “more than 2 fold”. Further, the “chemotrypsin activity of proteasome in the presence of RA190” value at proteasome [2] (HepG2) is reported as “very similar to the ketamin results”. The “trypsin, chemotrypsin and caspase-like proteasome activities” value at proteasome [2] is “increased”. Also, the “SA β-gal stained cells, control cells compared to treated cells” value in [3] is recorded as 1.8 fold. Besides, the “proliferation (MTT assay)” value in test [4] was “higher”. Also, in the test with hippocampal slices, the “LTP in hippocampal slices” value is reported as “do not attenuate”. Moreover, in test [6], the “increase in cd44 protein expression” value was “statistically significantly less”, the “increase in cd73 protein expression” value is given as “statistically significantly less” and the “increase in cd90 protein expression” value is listed as “statistically significantly less”. Besides, the “Nile red flourescence (intracellular lipid droplets)” value in [5] was “more flourescence”.
